Test results published in patent US20240352046A1, “ECTONUCLEOTIDE PYROPHOSPHATASE-PHOSPHODIESTERASE-1 (ENPP1) INHIBITORS AND USES THEREOF” (1cBio, Inc., priority 2020, published 2024).

Each molecule was assayed on IP-10 release in differentiated THP-1 cells (assay: IP-10 cytokine release assay in THP-1 cell lines). Details: cGAMP (1 μM) alone, differentiated THP-1.
Format: cell-based, Human
Protocol: Percent release of Interferon gamma-induced protein 10 (IP-10) was determined in acute monocytic leukemia (THP-1; ATCC® TIB-202™) cell line. THP-1 cells (0.2×10^6 cells/well) were differentiated using phorbol 12-myristate 13-acetate (PMA, 10 nM (final concentration); Cat #P8139, Sigma) and incubated for 24 h at 37° C., 5% CO2 in an incubator (cell culture conditions) prior to treating with serial dilutions of compounds (3 fold, 6 point dose response starting at 10 μM). After treatment with the compounds cells were further incubated for 2 h under cell culture conditions and then exposed to 2′,3′-cGAMP (c-GAMP, 1 μM (final concentration); Cat #SML 1229, Sigma). Differentiated THP-1 cells were further cultured for 24 h after which the supernatant was harvested, and ELISA was performed as per the manufacturer's protocol (BD optEIA Human IP-10 ELISA Set; Cat #550926 & 550534, BD Biosciences). Plates were read in Biotek plate reader by measuring absorbance at 450 nm.
The release of absolute IP-10 in differentiated THP-1 by compounds in the presence of cGAMP was quantified with reference to standard after subtracting blank (negative) reading from the test readings. The absolute release of IP-10 in the presence of cGAMP (1 μM) is given in the bar-graph (FIG.-1) and in the table-B2a.
The release of IP-10 in differentiated THP-1 by compounds over cGAMP induced release at four different concentrations of cGAMP (1, 5, 10 & 30 μM) was quantified with reference to standard by normalizing the blank (negative) subtracted test readings from average of cGAMP activated cells at that particular concentration. The EC50's was calculated by fitting the curve to the “four-parameter variable slope logistic model” using Prism Graph Pad.

| Compound | Percent release IP-10 (Absolute) [%] |
| --- | --- |
| Nc1nc2c(ncn2[C@@H]2O[C@@H]3COP(=O)(O)O[C@H]4[C@@H](O)[C@H](n5cnc6c(N)ncnc65)O[C@@H]4COP(=O)(O)O[C@@H]2[C@@H]3O)c(=O)[nH]1 [CGAMP, 2′,3′-cGAMP, reference compound] | 5.6 |

Each molecule was assayed against ENPP-1 (Ectonucleotide Pyrophosphatase/Phosphodiesterase 1) (Homo sapiens (Human), UniProt P22413) (assay: ENPP1 inhibition assay (AMP Glo, cGAMP substrate)). Details: cGAMP 20 μM substrate, ENPP1 1 nM.
Format: biochemical
Protocol: IC50 values of compounds against ENPP-1 (Ectonucleotide Pyrophosphatase/Phosphodiesterase 1) were determined at Integral BioSciences (India) using AMP Glo (Promega, Cat #V5011). Assay was performed in a 30 μL final volume in a white 96-well Half Area plate (Costar,Cat #3693). Dose response curve for the compounds were prepared in duplicates with starting conc. at 5 μM and a three-fold titration was performed. The reaction buffer consisted of 50 mM Tris (pH 8.0), 0.5 mM CaCl2), 1 μM ZnCl2, 250 mM NaCl and 0.1 mg/ml BSA. To the compound dilution, 15 μL of ENPP1 enzyme (R&D Systems; Cat #6136-EN-010) was added to each well (final conc. 1 nM) and the mix was pre-incubated for 15 min at RT. An equal volume (15 μL) containing cGAMP (Sigma, Cat #SML-1229) (final conc. 20 μM) was added to initiate the enzyme reaction and the reaction was incubated for 30 min at RT. The reaction was then stopped by heating at 90° C. for 3 minutes. 10 μl of reaction was then transferred to 384 well white, medium binding plates (Grenier, Cat #781075) to which 10 μl of AMP-Glo Reagent 1 was added and mixed well and incubated for 1 hour at 25° C. Following 60 min incubation, 20 μL of detection mixture was added to the enzyme reaction bringing the final volume to 40 μL. The reaction was further incubated for 60 min at RT after which the plates were read using BioTek Plate reader.
Analysis was done using the standard curve by non-linear regression, variable slope inhibitor curve fits (Graph-Pad Prism) and IC50's of compounds were determined wherever possible.

Sequence of ENPP-1 (Ectonucleotide Pyrophosphatase/Phosphodiesterase 1) (P22413 whole entry): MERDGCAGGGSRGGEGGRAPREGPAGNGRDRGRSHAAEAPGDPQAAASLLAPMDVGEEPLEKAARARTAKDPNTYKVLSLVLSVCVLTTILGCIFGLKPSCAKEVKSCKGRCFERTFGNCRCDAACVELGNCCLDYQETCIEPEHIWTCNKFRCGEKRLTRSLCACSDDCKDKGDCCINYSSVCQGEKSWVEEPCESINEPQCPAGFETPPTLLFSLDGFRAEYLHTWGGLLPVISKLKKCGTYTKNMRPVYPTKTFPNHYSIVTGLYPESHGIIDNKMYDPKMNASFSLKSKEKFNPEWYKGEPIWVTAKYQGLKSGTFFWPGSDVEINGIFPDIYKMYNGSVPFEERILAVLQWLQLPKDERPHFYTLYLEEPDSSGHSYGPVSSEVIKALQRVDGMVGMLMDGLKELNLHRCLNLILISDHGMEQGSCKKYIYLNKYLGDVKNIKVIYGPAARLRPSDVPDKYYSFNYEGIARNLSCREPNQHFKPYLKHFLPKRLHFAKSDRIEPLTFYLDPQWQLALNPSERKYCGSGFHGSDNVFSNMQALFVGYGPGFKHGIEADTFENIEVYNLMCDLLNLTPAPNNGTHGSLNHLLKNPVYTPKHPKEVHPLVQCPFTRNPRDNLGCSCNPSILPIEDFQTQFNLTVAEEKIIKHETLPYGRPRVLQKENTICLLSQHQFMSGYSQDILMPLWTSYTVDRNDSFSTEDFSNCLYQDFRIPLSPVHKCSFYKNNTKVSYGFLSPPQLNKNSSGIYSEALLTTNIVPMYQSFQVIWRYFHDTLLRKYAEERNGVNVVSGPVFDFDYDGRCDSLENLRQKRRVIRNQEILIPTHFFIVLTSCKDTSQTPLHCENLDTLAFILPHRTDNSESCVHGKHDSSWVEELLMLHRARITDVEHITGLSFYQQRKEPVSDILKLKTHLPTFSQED

| Compound | IC50 [µM] |
| --- | --- |
| Cc1cc(Cl)n2nc(-c3ccc(F)cc3)nc(N3CC4(CC(N(C)S(N)(=O)=O)C4)C3)c12 [Compound 1.106, N-(2-(7-chloro-2-(4-fluorophenyl)-5-methylpyrrolo[2,1-f][1,2,4]triazin-4-yl)-2-azaspiro[3.3]heptan-6-yl)-N-methylsulfamamide] | > 3 |
| CN(C1CC2(C1)CN(c1nc(N)nc3[nH]cnc13)C2)S(N)(=O)=O [Compound 1.108, N-(2-(2-amino-9H-purin-6-yl)-2-azaspiro[3.3]heptan-6-yl)-N-methylsulfamamide] | > 3 |
| Cc1cc(Cl)n2ncnc(N3CC4(CC(N(Cc5ccc(C(F)(F)F)cc5)S(N)(=O)=O)C4)C3)c12 [Compound 1.109, N-(2-(7-chloro-5-methylpyrrolo[2,1-f][1,2,4]triazin-4-yl)-2-azaspiro[3.3]heptan-6-yl)-N-(4-(trifluoromethyl)benzyl)sulfamamide] | 0.189 |
| Cc1cc(Cl)n2ncnc(N3CC4(CC(N(C5CCCC5)S(N)(=O)=O)C4)C3)c12 [Compound 1.110, N-(2-(7-chloro-5-methylpyrrolo[2,1-f][1,2,4]triazin-4-yl)-2-azaspiro[3.3]heptan-6-yl)-N-cyclopentylsulfamamide] | 0.395 |
| Cc1cc(Cl)n2ncnc(N3CC4(CC(N(C5CCC5)S(N)(=O)=O)C4)C3)c12 [Compound 1.111, N-(2-(7-chloro-5-methylpyrrolo[2,1-f][1,2,4]triazin-4-yl)-2-azaspiro[3.3]heptan-6-yl)-N-cyclobutylsulfamamide] | 0.398 |
| Cc1cc(Cl)n2ncnc(N3CC4(CC(N(Cc5ccccc5)S(N)(=O)=O)C4)C3)c12 [Compound 1.112, N-benzyl-N-(2-(7-chloro-5-methylpyrrolo[2,1-f][1,2,4]triazin-4-yl)-2-azaspiro[3.3]heptan-6-yl)sulfamamide] | 0.141 |
| Cc1cc(Cl)n2ncnc(N3CC4(CC(N(CC(C)(C)C)S(N)(=O)=O)C4)C3)c12 [Compound 1.113, N-(2-(7-chloro-5-methylpyrrolo[2,1-f][1,2,4]triazin-4-yl)-2-azaspiro[3.3]heptan-6-yl)-N-neopentylsulfamamide] | 0.169 |
| CCCCN(C1CC2(C1)CN(c1ncnn3c(Cl)cc(C)c13)C2)S(N)(=O)=O [Compound 1.114, N-butyl-N-(2-(7-chloro-5-methylpyrrolo[2,1-f][1,2,4]triazin-4-yl)-2-azaspiro[3.3]heptan-6-yl)sulfamamide] | 0.039 |
| Cc1cc(Cl)n2ncnc(N3CC4(CC(N(CC5CC5)S(N)(=O)=O)C4)C3)c12 [Compound 1.115, N-(2-(7-chloro-5-methylpyrrolo[2,1-f][1,2,4]triazin-4-yl)-2-azaspiro[3.3]heptan-6-yl)-N-(cyclopropylmethyl)sulfamamide] | 0.051 |
| Cc1cc(Cl)n2ncnc(N3CC4(CC(N(CC5CCC5)S(N)(=O)=O)C4)C3)c12 [Compound 1.116, N-(2-(7-chloro-5-methylpyrrolo[2,1-f][1,2,4]triazin-4-yl)-2-azaspiro[3.3]heptan-6-yl)-N-(cyclobutylmethyl)sulfamide] | 0.069 |
| Cc1cc(Cl)n2ncnc(N3CC4(CC(N(CC5CCCCC5)S(N)(=O)=O)C4)C3)c12 [Compound 1.117, N-(2-(7-chloro-5-methylpyrrolo[2,1-f][1,2,4]triazin-4-yl)-2-azaspiro[3.3]heptan-6-yl)-N-(cyclohexylmethyl)sulfamide] | 0.239 |
| Cc1cc(Cl)n2ncnc(N3CC4(CC(N(CC5CCC(F)(F)CC5)S(N)(=O)=O)C4)C3)c12 [Compound 1.118, N-(2-(7-chloro-5-methylpyrrolo[2,1-f][1,2,4]triazin-4-yl)-2-azaspiro[3.3]heptan-6-yl)-N-((4,4-difluorocyclohexyl)methyl)sulfamamide] | 0.072 |
| Cc1cc(Cl)n2ncnc(N3CC4(CC(N(CC5CCC(C(F)(F)F)CC5)S(N)(=O)=O)C4)C3)c12 (stereo not shown) [Compound 1.119, N-(2-(7-chloro-5-methylpyrrolo[2,1-f][1,2,4]triazin-4-yl)-2-azaspiro[3.3]heptan-6-yl)-N-((4-(trifluoromethyl)cyclohexyl)methyl)sulfamamide] | 0.218 |
| Cc1cc(Cl)n2ncnc(N3CC4(CC(N(CC(O)C(F)(F)F)S(N)(=O)=O)C4)C3)c12 (stereo not shown) [Compound 1.120, N-(2-(7-chloro-5-methylpyrrolo[2,1-f][1,2,4]triazin-4-yl)-2-azaspiro[3.3]heptan-6-yl)-N-(3,3,3-trifluoro-2-hydroxypropyl)sulfamamide] | 0.018 |
| Cn1ncc2c(N3CC4(CC(N(CC(F)F)S(N)(=O)=O)C4)C3)ncnc21 [Compound 1.121, N-(2,2-difluoroethyl)-N-(2-(1-methyl-1H-pyrazolo[3,4-d]pyrimidin-4-yl)-2-azaspiro[3.3]heptan-6-yl)sulfamamide] | 0.565 |
| COCCN(C1CC2(C1)CN(c1ncnn3c(Cl)cc(C)c13)C2)S(N)(=O)=O [Compound 1.122, N-(2-(7-chloro-5-methylpyrrolo[1,2-f][1,2,4]triazin-4-yl)-2-azaspiro[3.3]heptan-6-yl)-N-(2-methoxyethyl)sulfamamide] | 0.062 |
| CN(C1CC2(C1)CN(c1ncnc3c(Cl)cn(C)c13)C2)S(N)(=O)=O [Compound 1.123, N-(2-(7-chloro-5-methyl-5H-pyrrolo[3,2-d]pyrimidin-4-yl)-2-azaspiro[3.3]heptan-6-yl)-N-methylsulfamamide] | 0.039 |
| CN(C1CC2(C1)CN(c1ncnc3[nH]cc(Cl)c13)C2)S(N)(=O)=O [Compound 1.124, N-(2-(5-chloro-7,7α-dihydro-4αH-pyrrolo[2,3-d]pyrimidin-4-yl)-2-azaspiro[3.3]heptan-6-yl)-N-methylsulfamamide] | 1.86 |
| Cc1cc(Cl)n2ncnc(N3CC4(CC(N(CCF)S(N)(=O)=O)C4)C3)c12 [Compound 1.127, N-[2-(7-chloro-5-methylpyrrolo[2,1-f][1,2,4]triazin-4-yl)-2-azaspiro[3.3]hept-6-yl]-2-fluoroethylsulfuric diamide] | 0.043 |
| Cc1cc(Cl)n2ncnc(N3CC4(CC(N(CC(C)(F)F)S(N)(=O)=O)C4)C3)c12 [Compound 1.128] | 0.03 |
| Cc1cc(Cl)n2ncnc(N3CC4(CC(N(CC(F)(F)F)S(N)(=O)=O)C4)C3)c12 [Compound 1.129, N-(2-(7-chloro-5-methylpyrrolo[1,2-f][1,2,4]triazin-4-yl)-2-azaspiro[3.3]heptan-6-yl)-N-(2,2,2-trifluoroethyl)sulfamamide] | 0.047 |
| COc1ccc2c(N3CC4(CC(N(CC(F)F)S(N)(=O)=O)C4)C3)ncnc2c1 [Compound 1.131, N-(2,2-difluoroethyl)-N-(2-(7-methoxyquinazolin-4-yl)-2-azaspiro[3.3]heptan-6-yl) sulfamamide] | 0.055 |
| Cc1cc(Cl)n2ncnc(N3CC4(CC(NCc5ccc(S(N)(=O)=O)cc5)C4)C3)c12 [Compound 1.132, 4-(((2-(7-chloro-5-methylpyrrolo[2,1-f][1,2,4]triazin-4-yl)-2-azaspiro[3.3]heptan-6-yl)amino)methyl)benzenesulfonamide] | 0.181 |
| Cc1cc(Cl)n2ncnc(N3CC4(CC(N(C)Cc5ccc(S(N)(=O)=O)cc5)C4)C3)c12 [Compound 1.133, 4-(((2-(7-chloro-5-methylpyrrolo[2,1-f][1,2,4]triazin-4-yl)-2-azaspiro[3.3]heptan-6-yl)(methyl)amino)methyl)benzenesulfonamide] | 0.27 |
